Assay results published in article PMC10573254, “Development of Novel Class of Phenylpyrazolo[3,4-d]pyrimidine-Based Analogs with Potent Anticancer Activity and Multitarget Enzyme Inhibition Supported by Docking Studies” (International Journal of Molecular Sciences, 2023).
Where two headings read alike, the source gives them in different places.

Columns and labels:
EGFR^WT = EGFR^WT (Homo sapiens, UniProt P00533); test: In vitro EGFR enzyme inhibitory assay; assay type: biochemical
Method: (§5) The assays were conducted in Vacsera (Giza, Egypt). Curve fitting was performed using GraphPad Prism. Data are represented as means ± SD from three independent experiments.
Reader : Tecan Spark Reader

EGFR^T790M = EGFR^T790M (Homo sapiens, UniProt P00533, T790M); test: In vitro EGFR T790M kinase inhibitory assay
Sequence of EGFR^T790M (P00533 25-1210 T790M): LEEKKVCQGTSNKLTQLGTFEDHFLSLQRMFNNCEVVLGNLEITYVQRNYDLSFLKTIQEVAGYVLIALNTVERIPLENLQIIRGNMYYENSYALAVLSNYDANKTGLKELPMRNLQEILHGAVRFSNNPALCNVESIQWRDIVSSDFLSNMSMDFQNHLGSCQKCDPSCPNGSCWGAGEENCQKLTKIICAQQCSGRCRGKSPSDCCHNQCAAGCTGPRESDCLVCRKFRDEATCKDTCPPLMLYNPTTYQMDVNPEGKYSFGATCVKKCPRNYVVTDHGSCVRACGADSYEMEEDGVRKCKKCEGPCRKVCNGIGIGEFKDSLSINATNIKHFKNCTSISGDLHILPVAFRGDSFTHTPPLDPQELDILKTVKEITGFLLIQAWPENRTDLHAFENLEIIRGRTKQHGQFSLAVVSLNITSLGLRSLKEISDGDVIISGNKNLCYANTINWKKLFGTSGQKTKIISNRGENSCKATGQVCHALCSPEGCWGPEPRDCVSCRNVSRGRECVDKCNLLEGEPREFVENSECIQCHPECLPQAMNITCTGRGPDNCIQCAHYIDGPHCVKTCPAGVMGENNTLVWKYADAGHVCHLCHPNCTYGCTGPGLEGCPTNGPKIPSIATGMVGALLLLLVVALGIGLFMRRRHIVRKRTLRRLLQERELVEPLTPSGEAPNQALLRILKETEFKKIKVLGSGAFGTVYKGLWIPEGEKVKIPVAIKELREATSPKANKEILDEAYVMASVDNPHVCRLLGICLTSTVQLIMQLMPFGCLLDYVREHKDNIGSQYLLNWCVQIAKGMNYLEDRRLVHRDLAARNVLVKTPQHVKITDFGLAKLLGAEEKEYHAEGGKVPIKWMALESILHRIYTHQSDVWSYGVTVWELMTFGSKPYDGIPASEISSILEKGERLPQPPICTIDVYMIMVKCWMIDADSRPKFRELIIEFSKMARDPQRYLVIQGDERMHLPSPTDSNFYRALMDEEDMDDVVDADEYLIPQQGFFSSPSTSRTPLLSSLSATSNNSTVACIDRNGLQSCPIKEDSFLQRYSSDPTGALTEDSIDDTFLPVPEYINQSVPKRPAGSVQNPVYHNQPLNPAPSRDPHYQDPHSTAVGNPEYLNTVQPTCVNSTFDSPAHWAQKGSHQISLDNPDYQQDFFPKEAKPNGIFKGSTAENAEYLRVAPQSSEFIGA
Method: as §5
Assay : EGFR-T490M kinase assay
Reader : Tecan-spark reader
Kit used : BPS bioscience EGFR assay kit.

MCF-7 = test: MTT cytotoxicity assay, MCF-7; assay type: cell-based; conditions: Homo sapiens, MCF7
Method: (§6) The cytotoxic activity was assessed using the 3-(4,5-dimethylthiazol-2-yl)-2,5-diphenyl tetrazolium bromide (MTT) colorimetric assay, as reported previously [62, 63]. […] Briefly, the designated cell lines were cultured at a concentration of 5 × 10^4 cell/well in 96-well plates. The cells were incubated for 24 h under optimum conditions. Following this, the designated molecules were introduced (in serial dilutions from 0 to 50 μg/mL), and the cells were incubated for an additional 24 h. Following this, the media were withdrawn, and 100 μL of fresh medium was added. Then, 10 µL of the 12 mM MTT stock solution was administered to each well. The plates were then incubated for 4 h. Then, the cells were exposed to different compounds at the desired concentrations (0.01, 0.1, 1, 10, and 100 µM) or to 1% dimethyl sulfoxide (DMSO) for 48 and 72 h. […] Then, the optical density was measured at 590 nm with the microplate reader (Sunrise, TECAN, Inc., Morrisville, NC, USA).

[1] = system: MCF-7, HCT116, and HePG-2; test: MTT assay against three malignant cell lines (summary); assay type: cell-based; conditions: Homo sapiens, read-out: IC50 cytotoxicity (range over cell lines)
Method: (§1) According to our design, the tested compounds are classified into four categories based on the length and the chemotype of the spacer (Figure 3). In the first category, we used monosubstituted hydrazone linker. […] The second category is represented by […] hydrazone linker.
(§2) The cytotoxic activity was assessed using the 3-(4,5-dimethylthiazol-2-yl)-2,5-diphenyl tetrazolium bromide (MTT) colorimetric assay, as reported previously. Doxorubicin was used as a reference standard, and DMSO was used as a negative control. Briefly, the designated cell lines were cultured at a concentration of 5 × 10^4 cell/well in 96-well plates. The cells were incubated for 24 h under optimum conditions. Following this, the designated molecules were introduced (in serial dilutions from 0 to 50 μg/mL), and the cells were incubated for an additional 24 h. Following this, the media were withdrawn, and 100 μL of fresh medium was added. Then, 10 µL of the 12 mM MTT stock solution was administered to each well. The plates were then incubated for 4 h. […] An 85-μL aliquot of the media was removed from the wells, and 50 µL of DMSO was added to each well and mixed thoroughly with the pipette and incubated at 37 °C for 10 min. Then, the optical density was measured at 590 nm with the microplate reader (Sunrise, TECAN, Inc., Morrisville, NC, USA).

WI-38 = test: MTT assay on normal cell line WI-38; assay type: cell-based; conditions: normal human diploid fibroblasts
Method: as §1, §2

Topo-II = target: T1, Topo-II (Homo sapiens, UniProt Q02880); test: In vitro Topo II inhibitory assay; assay type: biochemical
T1 construct: purchased
T1 sequence (Q02880 2-1626): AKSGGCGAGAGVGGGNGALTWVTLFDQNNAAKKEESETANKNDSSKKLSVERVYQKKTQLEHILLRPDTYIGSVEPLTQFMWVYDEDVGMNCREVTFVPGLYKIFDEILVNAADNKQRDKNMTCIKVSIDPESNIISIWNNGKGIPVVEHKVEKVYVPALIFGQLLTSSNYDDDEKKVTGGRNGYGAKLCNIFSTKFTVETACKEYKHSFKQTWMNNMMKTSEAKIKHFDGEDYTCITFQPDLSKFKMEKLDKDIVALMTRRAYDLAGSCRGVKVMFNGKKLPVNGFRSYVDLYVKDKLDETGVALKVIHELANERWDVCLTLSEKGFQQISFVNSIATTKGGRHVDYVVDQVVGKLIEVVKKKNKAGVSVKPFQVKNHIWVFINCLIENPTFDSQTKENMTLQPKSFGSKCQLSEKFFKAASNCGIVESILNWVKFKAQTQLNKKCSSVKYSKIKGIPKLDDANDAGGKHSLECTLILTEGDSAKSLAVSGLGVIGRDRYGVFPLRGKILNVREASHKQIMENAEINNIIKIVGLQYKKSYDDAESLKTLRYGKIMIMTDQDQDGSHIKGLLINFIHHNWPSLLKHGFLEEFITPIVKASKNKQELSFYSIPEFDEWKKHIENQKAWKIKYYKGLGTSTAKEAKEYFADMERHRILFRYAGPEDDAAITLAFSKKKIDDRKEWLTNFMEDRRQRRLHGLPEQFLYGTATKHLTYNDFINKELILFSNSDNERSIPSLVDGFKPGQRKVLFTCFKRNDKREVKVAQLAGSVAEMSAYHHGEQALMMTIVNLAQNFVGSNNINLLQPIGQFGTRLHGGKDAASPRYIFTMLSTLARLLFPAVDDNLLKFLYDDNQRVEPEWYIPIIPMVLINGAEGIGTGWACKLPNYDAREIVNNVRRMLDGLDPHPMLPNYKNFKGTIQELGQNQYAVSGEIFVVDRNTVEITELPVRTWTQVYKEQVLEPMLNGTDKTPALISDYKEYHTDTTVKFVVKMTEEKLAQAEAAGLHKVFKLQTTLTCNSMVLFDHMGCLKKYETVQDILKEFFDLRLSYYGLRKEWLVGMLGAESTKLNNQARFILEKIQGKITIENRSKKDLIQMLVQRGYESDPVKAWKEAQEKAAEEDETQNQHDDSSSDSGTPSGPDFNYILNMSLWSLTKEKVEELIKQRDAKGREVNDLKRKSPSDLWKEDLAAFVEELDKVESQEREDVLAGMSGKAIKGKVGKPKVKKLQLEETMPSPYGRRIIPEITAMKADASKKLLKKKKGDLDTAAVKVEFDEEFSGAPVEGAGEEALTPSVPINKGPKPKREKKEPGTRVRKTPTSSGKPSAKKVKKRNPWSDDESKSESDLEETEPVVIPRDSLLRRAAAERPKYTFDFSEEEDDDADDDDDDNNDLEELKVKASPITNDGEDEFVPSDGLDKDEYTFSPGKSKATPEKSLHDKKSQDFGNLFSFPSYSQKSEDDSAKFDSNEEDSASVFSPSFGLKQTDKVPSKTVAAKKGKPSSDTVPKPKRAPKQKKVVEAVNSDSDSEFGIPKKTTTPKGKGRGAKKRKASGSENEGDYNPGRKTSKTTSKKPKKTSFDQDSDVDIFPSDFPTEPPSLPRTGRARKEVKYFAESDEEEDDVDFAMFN
Method: (§3) Curve fitting was performed using GraphPad Prism.
(§4) (1 picture or pasted object on this page, not shown here)

HCT-116 = test: MTT cytotoxicity assay, HCT-116; assay type: cell-based; conditions: Homo sapiens
Method: as §6

HePG-2 = test: MTT cytotoxicity assay, HePG-2; assay type: cell-based; conditions: Homo sapiens, HepG2
Method: as §2

VEGFR-2 = VEGFR-2 (Homo sapiens, UniProt P35968); test: In vitro VEGFR2 enzyme inhibitory assay; assay type: biochemical
Sequence of VEGFR-2 (P35968 20-1356): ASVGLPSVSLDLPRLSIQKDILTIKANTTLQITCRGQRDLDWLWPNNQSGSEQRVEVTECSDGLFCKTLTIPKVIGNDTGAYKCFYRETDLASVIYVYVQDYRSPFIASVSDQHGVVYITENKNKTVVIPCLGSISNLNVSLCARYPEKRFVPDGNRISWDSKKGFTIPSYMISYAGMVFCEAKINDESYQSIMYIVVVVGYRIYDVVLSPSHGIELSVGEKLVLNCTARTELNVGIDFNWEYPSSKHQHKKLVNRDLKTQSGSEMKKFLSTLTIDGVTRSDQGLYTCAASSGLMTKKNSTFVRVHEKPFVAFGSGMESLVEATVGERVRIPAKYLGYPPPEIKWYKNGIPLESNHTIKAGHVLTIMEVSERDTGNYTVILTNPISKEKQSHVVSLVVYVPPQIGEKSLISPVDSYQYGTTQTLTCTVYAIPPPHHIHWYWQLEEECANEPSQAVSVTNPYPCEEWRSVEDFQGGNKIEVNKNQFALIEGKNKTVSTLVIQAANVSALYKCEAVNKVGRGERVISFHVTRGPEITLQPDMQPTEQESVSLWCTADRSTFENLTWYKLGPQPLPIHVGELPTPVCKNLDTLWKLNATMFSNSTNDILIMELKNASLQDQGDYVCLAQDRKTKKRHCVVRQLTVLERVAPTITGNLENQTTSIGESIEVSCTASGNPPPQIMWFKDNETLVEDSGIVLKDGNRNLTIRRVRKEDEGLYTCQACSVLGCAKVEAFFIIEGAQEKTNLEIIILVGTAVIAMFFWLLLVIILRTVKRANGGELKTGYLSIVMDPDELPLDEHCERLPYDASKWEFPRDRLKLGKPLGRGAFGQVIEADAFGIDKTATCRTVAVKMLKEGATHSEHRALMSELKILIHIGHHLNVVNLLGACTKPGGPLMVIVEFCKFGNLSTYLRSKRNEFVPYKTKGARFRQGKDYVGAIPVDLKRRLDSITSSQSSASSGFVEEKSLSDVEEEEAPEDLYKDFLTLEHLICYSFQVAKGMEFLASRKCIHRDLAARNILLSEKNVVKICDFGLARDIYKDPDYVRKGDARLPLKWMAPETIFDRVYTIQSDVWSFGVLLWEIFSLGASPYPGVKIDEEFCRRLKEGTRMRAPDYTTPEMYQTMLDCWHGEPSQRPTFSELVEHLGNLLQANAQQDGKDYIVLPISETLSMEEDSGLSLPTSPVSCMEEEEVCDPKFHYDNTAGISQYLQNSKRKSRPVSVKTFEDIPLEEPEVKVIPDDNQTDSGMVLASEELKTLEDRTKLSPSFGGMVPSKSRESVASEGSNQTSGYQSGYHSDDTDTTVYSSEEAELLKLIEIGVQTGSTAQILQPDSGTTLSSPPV
Method: as §3, §4

With `Cc1nc(NN=Cc2ccc(O)cc2)c2cnn(-c3ccccc3)c2n1` [Compound 5b, 4-((2-(6-Methyl-1-phenyl-1H-pyrazolo[3,4-d]pyrimidin-4-yl)hydrazineylidene)methyl)phenol] the “EGFR %inh at conc 0.01” value (EGFR^WT; conc 0.01, unit not given) was 28%, the “EGFR %inh at conc 0.1” value (EGFR^WT; conc 0.1, unit not given) was 46% and the “EGFR %inh at conc 1” value (EGFR^WT; conc 1, unit not given) was 71%. The “EGFR %inh at conc 10” value (EGFR^WT; conc 10, unit not given) was 87%, the IC50 (EGFR^WT; supplement lab report, read-out: EGFR IC50 (lab report) (converted)) was 0.366 µM and the IC50 (EGFR^T790M) was 1.93 ± 0.08 µM. The “EGFR T790M %inh at conc 0.01” value (EGFR^T790M; conc 0.01 (conc.ng/ml)) was 37%, the “EGFR T790M %inh at conc 0.1” value (EGFR^T790M; conc 0.1 (conc.ng/ml)) was 54% and the “EGFR T790M %inh at conc 1” value (EGFR^T790M; conc 1 (conc.ng/ml)) was 77%. For the same compound, the “EGFR T790M %inh at conc 10” value (EGFR^T790M; conc 10 (conc.ng/ml)) was 87%, the IC50 (MCF-7; 24 h incubation, read-out: IC50 MCF-7 24 h) was 10.5 ± 0.7 µM and the IC50 (MCF-7; 48 h incubation, read-out: IC50 MCF-7 48 h) was 9.82 ± 0.9 µM. For the same compound, the IC50 (MCF-7; 72 h incubation, read-out: IC50 MCF-7 72 h) was 5.16 ± 0.4 µM, the IC50 (MCF-7; MTT, breast cancer cells, read-out: IC50 MCF-7) was 10.5 ± 0.7 µM and the IC50 [1] was 3 to 10 µM. The IC50 (WI-38; Homo sapiens, WI-38, MTT) was > 35 µM, the IC50 (WI-38; MTT) was 35 ± 0.3 µM and the “TOPO IiB %inh at conc 0.1” value (Topo-II; conc 0.1, unit not given) was 6.7%. The “TOPO IiB %inh at conc 1” value (Topo-II; conc 1, unit not given) was 12%, the “TOPO IiB %inh at conc 10” value (Topo-II; conc 10, unit not given) was 31% and the “TOPO IiB %inh at conc 100” value (Topo-II; conc 100, unit not given) was 66%. The IC50 (Topo-II; read-out: IC50 Topo-II) was 108 ± 2.2 µM, the IC50 (Topo-II; supplement lab report, Human DNA Topoisomerase 2B Kit, read-out: TOP2a IC50 (lab report) (converted)) was 108 µM and the melting point was 162 to 164 °C. The IC50 (HCT-116; HCT-116, read-out: IC50 HCT-116, MTT, colon cancer cells) was 5.65 ± 0.3 µM, the IC50 (HCT-116; HCT-116, 24 h incubation, read-out: IC50 HCT116 24 h) was 5.65 ± 0.3 µM and the IC50 (HCT-116; HCT-116, 48 h incubation, read-out: IC50 HCT116 48 h) was 9.82 ± 0.9 µM. The IC50 (HCT-116; HCT-116, 72 h incubation, read-out: IC50 HCT116 72 h) was 4.09 ± 0.3 µM, the IC50 (HePG-2; 24 h incubation, read-out: IC50 HePG-2 24 h) was 9.12 ± 0.7 µM and the IC50 (HePG-2; 48 h incubation, read-out: IC50 HePG-2 48 h) was 7.6 ± 0.7 µM. For the same compound, the IC50 (HePG-2; 72 h incubation, read-out: IC50 HePG-2 72 h) was 5.16 ± 0.4 µM, the IC50 (HePG-2; MTT, liver cancer cells, read-out: IC50 HePG-2) was 9.12 ± 0.7 µM and the “VEGFR2 %inh at conc 0.01” value (VEGFR-2; conc 0.01, unit not given) was 13%. The “VEGFR2 %inh at conc 0.1” value (VEGFR-2; conc 0.1, unit not given) was 25%, the “VEGFR2 %inh at conc 1” value (VEGFR-2; conc 1, unit not given) was 50% and the “VEGFR2 %inh at conc 10” value (VEGFR-2; conc 10, unit not given) was 70%. For the same compound, the “target selectivity index EGFR over VGFR-2” value (VEGFR-2; fold, EGFR^WT versus VGFR-2) was 20, the IC50 (VEGFR-2; read-out: IC50 VGFR2) was 15.7 ± 0.32 µM and the IC50 (VEGFR-2; supplement lab report, read-out: VEGFR2 IC50 (lab report) (converted)) was 15.7 µM.
